Test [1] has as its target CRBN/DDB1 (Homo sapiens (Human), UniProt Q96SW2). The experiment in a line: HTRF binding assay to CRBN/DDB1. The note with it: read-out: CRBN HTRF IC50. The protocol:
The binding potency was determined using HTRF assay technology (Perkin Elmer). Compounds were serially diluted in DMSO and 0.2 μL volume was transferred to white 384-well plate.
Background: Time-resolved FRET reads energy transfer from a long-lived donor to a nearby acceptor.

Test [2] deals with T1, ER (Homo sapiens (Human), UniProt P03372). In words: In-cell western (ICW) ER degradation assay in MCF-7 cells. In kind it is cell-based. The conditions noted are these: MCF7, 16 hrs; for DC50: ER degradation; for Dmax: MCF7, maximal ER degradation; for MCF7 Dmax %: maximal ER degradation.
Test [3] concerns the target T1, ER. The experiment in a line: In-cell western (ICW) ER degradation assay in T47D cells. Format: cell-based. The note with it: 16 hrs; for DC50: ER degradation; for Dmax / T47D Dmax %: maximal ER degradation.
Test [4] concerns the target ERα_LBD(GST) (Homo sapiens (Human), UniProt P03372). In words: LanthaScreen TR-FRET ERα competitive binding assay. The conditions noted are these: read-out: ERα HTRF IC50. The protocol:
• 1. ERα_LBD(GST) protein: 4 nM • 2. Tb Anti-GST: 2 nM • 3. Fluormone ES2 Green tracer: 3 nM • 4. Incubation time: 60 min • 5. DMSO: 1% • 6. Assay buffer: Adding 1M DTT to Nuclear receptor Buffer K for final 5 mM DTT. • 7. ZPE: 1% DMSO • 8. HPE: 1 μM ARV_471 • 9. LanthaScreen® TR-FRET ERα Competitive Binding Assay (ThermoFisher, #A15887)
• 1) Cherry pick 2 μL 10 mM compound stock to column 1 of a 384 intermediate plate • 2) Add 18 μL DMSO to column 1 to dilute compound to 1 mM. • 3) Transfer 10 μL 1 mM compound to column 1 of a LDV plate. • 2) Add 6 μl DMSO to column 2-10 of the LDV plate. • 3) Compounds undergo 3-fold serial dilution (3 μL+6 μL) in DMSO. • 4) Transfer 120 nL compound solution to assay plate. • ZPE: 120 nL 100% DMSO
Prepare complete nuclear receptor buffer K by adding 1 M DTT to nuclear receptor buffer K for a final concentration of 5 mM DTT. Complete nuclear receptor buffer K must be prepared fresh daily. Prepare 2× protein solution using complete nuclear receptor buffer K containing 8 nM ERα_LBD(GST) and 4 nM Tb Anti-GST. Then, prepare 2× Fluormone ES2 Green tracer (6 nM) using complete nuclear receptor buffer K. Add 6 μL 2× Fluormone ES2 green tracer into a compound plate (PerkinElmer 6008289) by dragonfly with one-tips-addition. Subsequently, add 6 μL 2× protein solution into the plate. Briefly and gently mix the 384-well plate on a plate shaker and incubate at room temperature protected from light for 60 min. The plate is sealed with a cover to minimize evaporation. Read the plate at wavelengths of 520 nm and 495 nm. Calculate the TR-FRET ratio by dividing the emission signal at 520 nm by the emission signal at 495 nm. Generate a binding curve by plotting the emission ratio vs. the log [ligand]. To determine the IC50 value, fit the data using XL-fit for a sigmoidal dose-response.

A value given as a limit tells only on which side of the number the result lay.

The term IC50 denotes the concentration at which inhibition is half-maximal. As a reminder, the DC50 is the concentration giving 50% degradation. Read a low DC50 as a more potent degrader. As a reminder, the Dmax is the largest share of the target that was removed. Lower therefore signals shallow degradation.

Chain of CRBN/DDB1 (Q96SW2 whole entry): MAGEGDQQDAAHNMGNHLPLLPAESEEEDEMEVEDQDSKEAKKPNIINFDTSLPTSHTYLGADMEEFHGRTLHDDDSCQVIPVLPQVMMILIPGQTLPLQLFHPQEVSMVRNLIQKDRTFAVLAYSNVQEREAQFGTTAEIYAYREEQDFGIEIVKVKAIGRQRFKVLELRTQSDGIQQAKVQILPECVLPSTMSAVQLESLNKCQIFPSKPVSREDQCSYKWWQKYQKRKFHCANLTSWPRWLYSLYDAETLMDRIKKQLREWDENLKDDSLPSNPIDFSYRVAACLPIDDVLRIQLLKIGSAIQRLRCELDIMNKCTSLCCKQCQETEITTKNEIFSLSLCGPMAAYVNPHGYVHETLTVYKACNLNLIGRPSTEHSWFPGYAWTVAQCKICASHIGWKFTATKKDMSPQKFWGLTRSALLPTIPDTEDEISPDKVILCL
Chain of CRBN/DDB1 (Q16531 whole entry partner): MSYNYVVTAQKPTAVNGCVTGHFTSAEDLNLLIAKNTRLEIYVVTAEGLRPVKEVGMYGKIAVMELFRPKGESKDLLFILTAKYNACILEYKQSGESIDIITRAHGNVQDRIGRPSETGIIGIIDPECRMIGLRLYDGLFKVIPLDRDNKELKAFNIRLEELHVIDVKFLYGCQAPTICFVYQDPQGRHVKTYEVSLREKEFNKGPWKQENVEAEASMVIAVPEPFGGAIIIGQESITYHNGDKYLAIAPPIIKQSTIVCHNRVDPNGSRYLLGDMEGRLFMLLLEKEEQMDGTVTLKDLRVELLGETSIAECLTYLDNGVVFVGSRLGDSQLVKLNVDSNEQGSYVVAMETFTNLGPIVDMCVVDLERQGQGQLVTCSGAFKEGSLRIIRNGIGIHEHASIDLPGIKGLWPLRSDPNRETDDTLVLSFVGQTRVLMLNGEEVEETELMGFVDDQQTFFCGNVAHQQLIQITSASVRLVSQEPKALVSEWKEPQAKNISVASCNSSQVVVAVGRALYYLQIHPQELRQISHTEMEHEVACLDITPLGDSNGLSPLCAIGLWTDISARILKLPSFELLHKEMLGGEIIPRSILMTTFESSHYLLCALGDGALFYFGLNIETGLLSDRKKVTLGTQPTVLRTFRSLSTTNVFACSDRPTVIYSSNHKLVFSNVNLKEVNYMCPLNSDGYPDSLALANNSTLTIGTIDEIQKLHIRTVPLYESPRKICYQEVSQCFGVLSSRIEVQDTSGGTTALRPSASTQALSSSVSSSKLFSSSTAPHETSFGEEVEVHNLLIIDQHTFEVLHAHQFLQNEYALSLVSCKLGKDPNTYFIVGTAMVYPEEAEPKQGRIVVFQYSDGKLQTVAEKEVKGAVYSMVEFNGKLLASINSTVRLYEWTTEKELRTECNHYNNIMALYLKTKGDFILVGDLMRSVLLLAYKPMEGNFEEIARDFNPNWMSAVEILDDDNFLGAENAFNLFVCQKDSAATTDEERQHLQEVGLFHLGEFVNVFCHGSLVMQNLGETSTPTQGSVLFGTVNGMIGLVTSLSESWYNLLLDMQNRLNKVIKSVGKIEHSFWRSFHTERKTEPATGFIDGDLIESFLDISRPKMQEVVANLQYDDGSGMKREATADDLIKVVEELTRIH
T1 sequence (P03372 whole entry): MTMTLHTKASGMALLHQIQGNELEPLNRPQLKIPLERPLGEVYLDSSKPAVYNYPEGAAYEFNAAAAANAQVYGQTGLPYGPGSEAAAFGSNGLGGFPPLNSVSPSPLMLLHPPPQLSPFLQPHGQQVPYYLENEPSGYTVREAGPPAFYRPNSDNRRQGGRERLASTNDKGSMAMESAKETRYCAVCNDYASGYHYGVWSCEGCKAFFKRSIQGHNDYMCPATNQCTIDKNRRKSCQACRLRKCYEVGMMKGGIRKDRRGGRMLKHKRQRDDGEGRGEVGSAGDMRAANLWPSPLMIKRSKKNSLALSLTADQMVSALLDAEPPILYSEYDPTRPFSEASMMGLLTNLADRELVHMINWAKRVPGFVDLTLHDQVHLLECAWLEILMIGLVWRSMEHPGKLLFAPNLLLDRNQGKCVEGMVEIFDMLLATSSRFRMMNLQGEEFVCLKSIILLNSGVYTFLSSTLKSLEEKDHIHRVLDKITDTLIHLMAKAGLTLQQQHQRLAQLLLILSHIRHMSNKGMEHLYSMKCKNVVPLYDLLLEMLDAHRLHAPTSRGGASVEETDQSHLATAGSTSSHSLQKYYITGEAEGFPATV
Chain of ERα_LBD(GST) (P03372 311-547): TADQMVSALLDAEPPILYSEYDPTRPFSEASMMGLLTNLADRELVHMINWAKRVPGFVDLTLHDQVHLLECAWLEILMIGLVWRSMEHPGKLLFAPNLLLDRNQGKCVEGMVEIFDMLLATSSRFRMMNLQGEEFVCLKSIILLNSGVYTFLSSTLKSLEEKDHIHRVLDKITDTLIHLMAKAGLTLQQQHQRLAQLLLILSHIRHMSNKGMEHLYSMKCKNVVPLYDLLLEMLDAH

Turning to `O=C1CCC(NC(=O)c2ccc(N3CCN(CC4CC5(CCN(c6ccc([C@@H]7c8ccc(O)cc8OC[C@@H]7c7ccccc7)cc6)CC5)C4)CC3)cn2)C(=O)N1` (stereo partly drawn) [Compound A85, N-(2,6-dioxopiperidin-3-yl)-5-(4-((7-(4-((3S,4R)-7-hydroxy-3-phenylchroman-4-yl)phenyl)-7-azaspiro[3.5]nonan-2-yl)methyl)piperazin-1-yl)picolinamide], the half-inhibitory concentration (IC50) in test [1] is > 5000 nM. Moreover, the DC50 is < 1 nM in test [2] and 1 to 10 nM in test [3]. For the same compound, the greatest degradation seen (Dmax) in test [2] and in test [3] was 50 to 75% throughout.

Regarding `O=C1CC[C@@H](NC(=O)c2ccc(N3CCC(CN4CC5(CCN(c6ccc([C@H]7c8ccc(O)cc8OC[C@H]7c7ccccc7)cc6)CC5)C4)CC3)cn2)C(=O)N1` (single isomer, unassigned) [Compound A111], in test [1], the IC50 was in the range of 500 to 5000 nM. The 50% degradation concentration (DC50) in test [2] and in test [3] was < 1 nM in each case. For the same compound, the Dmax in test [2] and in test [3] was 50 to 75% throughout.

Consider `O=C1CC[C@@H](N2Cc3cc4c(cc3C2=O)OC[C@@H]2CN(C[C@H]3COC5(CCN(c6ccc([C@H]7c8ccc(O)cc8OC[C@H]7c7ccccc7)cc6)CC5)C3)CCN42)C(=O)N1` [Compound A152, (R)-3-((S)-3-(((S)-8-(4-((3R,4S)-7-hydroxy-3-phenylchroman-4-yl)phenyl)-1-oxa-8-azaspiro[4.5]decan-3-yl)methyl)-8-oxo-1,2,3,4,4a,5,8,10-octahydro-9H-pyrazino[1′,2′:4,5][1,4]oxazino[2,3-f]isoindol-9-yl)piperidine-2,6-dione], for which the IC50 in test [1] was in the range of 50 to 500 nM. In test [2], the DC50 lay within 10 to 100 nM; the “MCF7 Dmax %” value is “B (“B”: >50% and <75%)”. For the same compound, in test [3], the 50% degradation concentration (DC50) fell in the range of 1 to 10 nM; the “T47D Dmax %” value is “B (“B”: >50% and <75%)”.

Take `O=C1CCC(N2Cc3cc4c(cc3C2=O)OC[C@@H]2CN(CC3CCN(c5ccc([C@@H]6c7ccc(O)cc7OC[C@@H]6c6ccccc6)cn5)CC3)CCN42)C(=O)N1` (single isomer, unassigned) [Compound A70]: the half-inhibitory concentration (IC50) in test [1] was in the range of 50 to 500 nM. Besides, the 50% degradation concentration (DC50) was > 100 nM in test [2] and 1 to 10 nM in test [3].

On to `O=C1CCC(NC(=O)c2ccc(N3CCN(CC4CCN(c5ccc([C@H]6c7ccc(O)cc7OC[C@H]6c6ccccc6)cc5F)CC4)CC3)cn2)C(=O)N1` (single isomer, unassigned) [Compound A100], for which the half-inhibitory concentration (IC50) in test [1] is > 5000 nM. Moreover, in test [2], the 50% degradation concentration (DC50) lay in the range of 1 to 10 nM and the Dmax was in the range of 50 to 75%. Also, in test [3], the DC50 fell in the range of 1 to 10 nM and the Dmax fell in the range of 50 to 75%.

As to `O=C1CCC(NC(=O)c2ccc3c(n2)OC[C@H]2CN(CC4CCN(c5ccc([C@@H]6c7ccc(O)cc7OC[C@@H]6c6ccccc6)cc5F)CC4)CCN32)C(=O)N1` (single isomer, unassigned) [Compound A104], in test [1], the IC50 is 500 to 5000 nM. Also, in test [2], the 50% degradation concentration (DC50) fell in the range of 1 to 10 nM and the maximal degradation (Dmax) is ≥ 75%. In test [3], the DC50 was 1 to 10 nM and the maximal degradation (Dmax) is ≥ 75%.

As to `O=C1CC[C@@H](Nc2ccc(C3CCN(C[C@@H]4COC5(CCN(c6ccc([C@@H]7c8ccc(O)cc8OC[C@@H]7c7ccccc7)cc6)CC5)C4)CC3)c(F)c2)C(=O)N1` (single isomer, unassigned) [Compound A165], the half-maximal inhibitory concentration (IC50) in test [1] is 50 to 500 nM. In addition, the DC50 was 0.31 nM in test [2] (given as number) and < 1 nM in test [3]. The greatest degradation seen (Dmax) in test [2] fell in the range of 25 to 50%; in test [3], 50 to 75%.

For `COc1cc(N2CCC(CN3CCN4c5cc6c(cc5OC[C@H]4C3)C(=O)N(C3CCC(=O)NC3=O)C6)CC2)ccc1[C@@H]1c2ccc(O)cc2OC[C@@H]1c1ccccc1` (single isomer, unassigned) [Compound A84, 3-((R)-3-((1-(4-((3S,4R)-7-hydroxy-3-phenylchroman-4-yl)-3-methoxyphenyl)piperidin-4-yl)methyl)-8-oxo-1,2,3,4,4a,5,8,10-octahydro-9H-pyrazino[1′,2′:4,5][1,4]oxazino[2,3-f]isoindol-9-yl)piperidine-2,6-dione], the IC50 in test [1] fell in the range of 500 to 5000 nM. In addition, the 50% degradation concentration (DC50) in test [2] and in test [3] was < 1 nM each time.

`O=C1CCC(N2Cc3cc(N4CCN(CC5CC6(CCN(c7ccc([C@@H]8c9ccc(O)cc9OC[C@@H]8c8ccccc8)cn7)CC6)C5)CC4)ccc3C2=O)C(=O)N1` (single isomer, unassigned) [Compound A67]: the IC50 in test [1] was in the range of 50 to 500 nM. In test [2], the DC50 is > 100 nM and the “MCF7 Dmax %” value is on record as “D (“D”; <25%)”. Further, in test [3], the DC50 lay within 10 to 100 nM and the “T47D Dmax %” value is given as “D (“D”; <25%)”.

Regarding `COc1cc(C(=O)N[C@@H]2CCC(=O)NC2=O)ncc1N1CCN(CC2CCC3(CC2)CN(c2ccc([C@H]4c5ccc(O)cc5OC[C@H]4c4ccccc4)cc2)C3)CC1` (single isomer, unassigned) [Compound A144], the IC50 in test [1] is 500 to 5000 nM. Besides, in test [2], the DC50 lay in the range of 10 to 100 nM and the Dmax is 25 to 50%. For the same compound, in test [3], the half-maximal degradation concentration (DC50) is > 100 nM and the greatest degradation seen (Dmax) is < 25%.

Regarding `COc1cc(N2CCC(CN3CCN(c4ccc(C(=O)NC5CCC(=O)NC5=O)nc4)CC3)CC2)ccc1[C@H]1c2ccc(O)cc2OC[C@H]1c1ccccc1` (single isomer, unassigned) [Compound A124], in test [1], the IC50 was > 5000 nM. Besides, the DC50 in test [2] and in test [3] was < 1 nM each time. Besides, the greatest degradation seen (Dmax) in test [2] and in test [3] was 50 to 75% throughout.

In the case of `O=C1CC[C@H](N2Cc3c(ccc4c3OC[C@H]3CN(CC5CC6(CCN(c7ccc([C@@H]8c9ccc(O)cc9OC[C@@H]8c8ccccc8)cc7)CC6)C5)CCN43)C2=O)C(=O)N1` (single isomer, unassigned) [Compound A90], in test [1], the half-inhibitory concentration (IC50) was > 5000 nM. For the same compound, in test [2], the DC50 was 1 to 10 nM; the “MCF7 Dmax %” value was “B (“B”: >50% and <75%)”. In test [3], the 50% degradation concentration (DC50) was < 1 nM and the Dmax is 50 to 75%.

Take `O=C1CCC(N2Cc3cc4c(cc3C2=O)OC[C@@H]2CN(CC3CCC5(CC3)CN(c3ccc([C@@H]6c7ccc(O)cc7OC[C@@H]6c6ccccc6)cc3)C5)CCN42)C(=O)N1` (stereo partly drawn) [Compound A63, 3-((S)-3-((2-(4-((3S,4R)-7-hydroxy-3-phenylchroman-4-yl)phenyl)-2-azaspiro[3.5]nonan-7-yl)methyl)-8-oxo-1,2,3,4,4a,5,8,10-octahydro-9H-pyrazino[1′,2′:4,5][1,4]oxazino[2,3-f]isoindol-9-yl)piperidine-2,6-dione]: the IC50 in test [1] is 500 to 5000 nM. Also, in test [2], the half-maximal degradation concentration (DC50) was > 100 nM and the “MCF7 Dmax %” value was “D (“D”; <25%)”. Moreover, in test [3], the DC50 is > 100 nM and the “T47D Dmax %” value is “D (“D”; <25%)”.

Consider `O=C1CCC(NC(=O)c2ccc3c(n2)OC[C@H]2CN(CC4CCN(c5ccc([C@H]6c7ccc(O)cc7OC[C@H]6c6ccccc6)cc5F)CC4)CCN32)C(=O)N1` (stereo partly drawn) [Compound A103, (4aR)-N-(2,6-dioxopiperidin-3-yl)-3-((1-(2-fluoro-4-((3R,4S)-7-hydroxy-3-phenylchroman-4-yl)phenyl)piperidin-4-yl)methyl)-1,2,3,4,4a,5-hexahydropyrazino[1,2-d]pyrido[2,3-b][1,4]oxazine-8-carboxamide], for which the IC50 in test [1] fell in the range of 500 to 5000 nM. In test [2], the half-maximal degradation concentration (DC50) was 1 to 10 nM and the greatest degradation seen (Dmax) fell in the range of 50 to 75%. In test [3], the DC50 lay in the range of 1 to 10 nM and the maximal degradation (Dmax) lay in the range of 50 to 75%.

In the case of `O=C1CC[C@@H](Nc2ccc(C3CCN(CC4CCC5(CC4)CN(c4ccc([C@@H]6c7ccc(O)cc7OC[C@@H]6c6ccccc6)cc4)C5)CC3)cc2)C(=O)N1` (single isomer, unassigned) [Compound A141], the IC50 in test [1] lay in the range of 50 to 500 nM. In test [2], this compound registered a DC50 of 1 to 10 nM and a Dmax of 50 to 75%. In test [3], this compound came in with a half-maximal degradation concentration (DC50) of 1 to 10 nM and a maximal degradation (Dmax) of 50 to 75%.

With `O=C1CCC(N2Cc3c(ccc4c3OC[C@@H]3CN(CC5CC6(CCN(c7ccc([C@H]8c9ccc(O)cc9OC[C@H]8c8ccccc8)cc7)CC6)C5)CCN43)C2=O)C(=O)N1` (single isomer, unassigned) [Compound A21], the half-inhibitory concentration (IC50) in test [4] was < 5 nM.

The values above are taken from patent US20260000676A1, “CHROMAN DERIVATIVES AS ESTROGEN RECEPTOR DEGRADERS” (THE REGENTS OF THE UNIVERSITY OF MICHIGAN, priority 2022, published 2026).
